Experiments:
WT mice = test: Novel object recognition assay (Discrimination Index) in WT mice; type: in vivo, mouse
Experimental: (§1) Following baseline determinations and group assignments, WT and Ts65Dn mice received intraperitoneal (i.p.) injections once/day (08:00) for the two-week duration of the drug treatment regimen (FIG. 1). Drugs were dissolved in physiological saline. Two drops of Tween 80 were used to facilitate solution formation for flumazenil. Picrotoxin was initially made up at 50× concentration in 20% ethanol and then diluted down to a […] solution with 0.4% ETOH in saline. Doses of drugs were based on previous behavioral research in mice (1 mg/kg for PTX and 10 mg/kg for flumazenil). Injections were given in a volume of 10 ml/kg. A vehicle control was run along side the treatment groups (0.4% ETOH in saline).
(§2) FIG. 1 graphically depicts the protocol. After habituation to the animal facility, mice were tested for baseline behaviors in the open-field locomotor assay (LMA)(30 min session) and the novel object recognition assay. Primary experimental groups were divided by genotype (Ts65Dn mice and wild-type control littermates). These two groups were further divided into drug treatments (vehicle, PTX and flumazenil) with a targeted n-size of 8 mice/group (24 WT and 24 Ts65Dn mice total). The group assignments were made in a semi-random process due to constraints in animal availability (staggered shipping) and choice of initial treatment groups (e-mail documentation between Bilsky laboratory and Cypress Bioscience on file). Daily morning injections began on Day 1 and went through the morning of Day 14. On Days 7/8 and 14/15 (13:00) mice were tested in the behavioral assay. Mice were kept for an additional two weeks and re-tested on Days 21/22 and 28/29 to assess the duration of the drug treatment effect.
The novel object recognition task is based on the innate tendency of rodents to differentially explore novel objects over familiar ones. The task is well validated for evaluating rodent memory and the effects of drug treatments on learning/memory performance.
Mice were trained and tested once per week, each experimental session separated by a one-week interval. Mice were submitted to daily handling sessions, and given an opportunity to habituate to an open field arena (48 cm×48 cm wide×25 cm), where they were exposed to two different objects (complex protocol), during a 5-minute training session. Objects were made from various non-porous materials that differ in shape and color. Mice were unable to climb onto the objects and the objects were generally consistent in height and volume, and were roughly symmetrical on a horizontal plane. Objects were positioned in two corners of the apparatus. To control for odor cues, the open field arena and the objects are thoroughly cleaned with 90% ethanol, dried, and ventilated for a few minutes between mice.
A 5-minute testing session was conducted 24 h after training. Here, the mice were presented with the object they had explored the previous day, and a new item (the objects being alternatively positioned in one corner or another in a balanced fashion within a given week, and from one week to another). […]

Ts65Dn mice = test: Long-term potentiation (LTP) in the dentate gyrus of Ts65Dn mice (paper Examples 1 and 2); type: in vivo, mouse; conditions: about 1 month after cessation of drug treatment
From the text: Since the ability of animals to learn and remember is thought to be encoded at the synaptic level, and involves the ability of synapses to undergo long-term changes in synapse strength, long-term potentiation (LTP) in the dentate gyrus may be evaluated.

WT and Ts65Dn mice = test: Open-field locomotor assay (LMA), 30 min session; type: in vivo, mouse; conditions: WT and Ts65Dn mice
Experimental: as §1, §2
General levels of arousal, locomotor activity and anxiety were assessed using an automated open-field activity monitoring system (Coulbourn Instruments with TruScan software). The open field test that were run were fully automated assays that quantified many different aspects and patterns of movement, including total distance traveled, time spent moving, rearing, and various stereotypic patterns of activity. The software calculates the time spent in the middle portions of the open field versus the outer zones alongside the outside walls. These variables can be used as one measure of general anxiety levels.
Mice were placed into an open field (26 cm×26 cm) in a brightly lit room. Two sensor rings (x-y plane and a vertical z plane) generate an array of infrared beams that surround the chamber. The pattern of beam breaks was recorded and the data fed into a personal computer. The TruScan software interpreted the beam breaks to calculate the movement variables and patterns of activity, with a temporal resolution of 100 msec. A 30 minutes session was used for assessment of the mice on Day 0 (Baseline) and then on Days 1, 7, 14, 21 and 28. Data were exported into an Excel spreadsheet, graphed and analyzed using parametric and non-parametric statistics.

[1] = of the intravenous bioavailability; cited from earlier work

## CCOC(=O)c1ncn2c1CN(C)C(=O)c1cc(F)ccc1-2 [flumazenil, 8-fluoro-5,6-dihydro-5-methyl-6-oxo-4H-imidazo[1,5-a]benzodiazepine-3-carboxylic acid ethyl ester]
WT mice; Week 2 of drug therapy, versus vehicle
  Discrimination Index (DI): no differences
WT mice; Week 4 (2 weeks post dosing)
  Discrimination Index (DI): slight negative DI
Ts65Dn mice
  LTP in the dentate gyrus: Normalized LTP
WT and Ts65Dn mice; PTX during drug administration phases, flumazenil over the 4 week testing regimen
  LMA vertical rearing: least effect
WT and Ts65Dn mice; across sessions, PTX 1 mg/kg, flumazenil 10 mg/kg i.p.
  LMA marginal distance traveled: very little habituation across sessions
[1]
  oral bioavailability: approximately 20%

Reference: patent US20090270373A1, “TREATMENT OF DOWN SYNDROM WITH BENZODIAZEPINE RECEPTOR ANTAGONISTS” (Cypress Biosciences, Inc., priority 2008, published 2009)
